Data taken from US20250027050A1, “LONG-TERM CULTURE OF COLORECTAL EPITHELIAL CELLS” (ISM CO., LTD., priority 2021, published 2025).
Entries after “also recorded” stand apart in the source; their conditions may differ.

Columns and labels:
Format in all cases: cell-based
[1] = tested on: Primary human colonic epithelial cells (HCoEpiC); experiment: Long-term culture of primary human colonic epithelial cells in the presence of low molecular weight compounds (cell number, morphology); conditions: for cell morphology during long-term culture: 10 μM Y-27632 solely added, after 72 days of culture; for continued growth / long-term culture of colorectal epithelial cells (number of cells): complete medium with 10 μM Y-27632 solely added, culture continued for 72 days, compared with A, C, YA, YC groups
Method: Regarding Primary human colonic epithelial cells (HCoEpiC), Lot No. 17030 was purchased from ScienCell Research Laboratories, Inc. (SCR, Carlsbad, CA, United States) and used. A complete medium containing 5 mL of a colonic epithelial cell growth supplement (CoEpiCGS, SCR) and 5 mL of penicillin/streptomycin (P/S, SCR) added to 500 mL of a colonic epithelial cell medium (CoEpiCM, SCR) as a basal medium was used as a medium. To investigate the effect on release of exosomes, 10 μM Y-27632 (ROCK inhibitor) (Wako), 0.5 μM A-83-01 (ALK5/7/4 selective inhibitor) (Wako), and 3 μM CHIR99021 (GSK-3 inhibitor) (Axon Medchem, Reston, VA) were used. Cells were completely dissolved in a water bath at 37° C. and seeded on 10 mL of the complete medium in a 10-cm dish coated with poly-L-lysine (poly-[…] 2 μg/cm^2, SCR) at 2.5×10^5 cells/dish. On the following day, the medium was replaced with a fresh complete medium. The medium was replaced with a complete medium every 3 or 4 days until 70% confluency was reached and then every other day while 70% to 90% confluency was reached. Cells reaching 90% confluency were removed using a 0.05% trypsin/EDTA solution (T/E, SCR) and seeded onto a 12-well plate (Fisher-brand 12-well tissue culture plate with a flat bottom) at 2×10^4 cells/well. Twenty four hours later, the medium was replaced with a complete medium containing or not containing Y-27632 (10 μM), and thereafter the medium was replaced every other day until 90% confluency was reached. When 90% confluency was reached, the cells were subcultured again, and the above-described procedures were continued for 72 days.

[2] = tested on: Primary human colonic epithelial cells (HCoEpiC); experiment: Particle diameter and particle number in culture supernatant by NanoSight
Method: (§1) Cells were completely dissolved in a water bath at 37° C. and seeded on 10 mL of the complete medium in a 10-cm dish coated with poly-L-lysine (poly-[…] 2 μg/cm^2, SCR) at 2.5×10^5 cells/dish. On the following day, the medium was replaced with a fresh complete medium. The medium was replaced with a complete medium every 3 or 4 days until 70% confluency was reached and then every other day while 70% to 90% confluency was reached. Cells reaching 90% confluency were removed using a 0.05% trypsin/EDTA solution (T/E, SCR) and seeded onto a 12-well plate (Fisher-brand 12-well tissue culture plate with a flat bottom) at 2×10^4 cells/well. Twenty four hours later, the medium was replaced with a complete medium containing or not containing Y-27632 (10 μM), and thereafter the medium was replaced every other day until 90% confluency was reached. When 90% confluency was reached, the cells were subcultured again, and the above-described procedures were continued for 72 days. The culture supernatant in the culture was recovered, and the particle diameter and the particle number were measured using a nanoparticle analysis system NanoSight (NS300, Malvern Panalytical Ltd.). Then, the signal intensities of exosome markers, CD9 and CD63, in the recovered culture supernatant were measured by an ExoScreen assay.

[3] = tested on: Primary human colonic epithelial cells (HCoEpiC); experiment: ExoScreen assay of exosome markers CD9 and CD63 in culture supernatant
Method: as §1

C[C@@H](N)[C@H]1CC[C@H](C(=O)Nc2ccncc2)CC1 [Y-27632, (1R,4r)-4-((R)-1-aminoethyl)-N-(pyridin-4-yl)cyclohexanecarboxamide]
cell morphology during long-term culture [1]: the morphology was unchanged
cell morphology during long-term culture ([1]; listed as Y): no morphological change was observed
continued growth / long-term culture of colorectal epithelial cells (number of cells) [1]: continued growth over the longest period; also recorded: allowed long-term culture of colorectal epithelial cells
continued growth / long-term culture of colorectal epithelial cells (number of cells) ([1]; listed as Y): Long-term culture was enabled
particle number concentration in the medium ([2]; Day 72 of culture, presence vs absence of Y-27632): higher in the absence of Y-27632
particle diameter of released vesicles ([2]; culture supernatants at Day 28, Day 35, Day 72, Y(+) vs Y(−)): unchanged
exosomes detected using CD9 and CD63 markers (signal intensity) ([3]; culture supernatant of HCoEpiC cultured in the presence vs absence of Y-27632): more exosomes were detected
decrease of CD9(+) exosomes after repeated passages ([3]; in the presence of Y-27632, fraction decreased): about ⅓
